In one data set the test system is TIGK cells. To be noted: positive control, 2 mM hydrogen peroxide, 4 h.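 Also: flow cytometry of cells stained with PE annexin V plus Sytox green, with untreated or 0.1% DMSO-exposed cells as negative controls.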
A further data set concerns J774A.1 cells. Conditions: positive control, 2 mM hydrogen peroxide, 4 h.
The test system of the next data set is HL60 cells. To be noted: HL60, positive control, 2 mM hydrogen peroxide, 4 h.

Marks after values point to notes of the source that are not given here.

Description for HL60 cells: (§1) The mouse macrophage cell line J774A.1 was grown in Dulbecco’s modified Eagle medium (DMEM) (Thermo Fisher Scientific, Waltham, MA) supplemented with 4.5 g/ml glucose, 10% fetal bovine serum (FBS), and 100 U/ml penicillin-streptomycin (Sigma-Aldrich, St. Louis, MO). HL60 (ATCC CCL240) cells were obtained from the American Type Culture Collection and cultured in Iscove’s modified Dulbecco’s medium (Sigma-Aldrich) supplemented with 20% fetal bovine serum (FBS) (Sigma-Aldrich).
(§2) The apoptotic activity of the compounds was determined using the phycoerythrin (PE) annexin V/dead cell apoptosis kit with Sytox green for flow cytometry (Invitrogen, Carlsbad, CA). Cells were grown in 12-well flat-bottom microtiter plates at an initial density 2 × 10^5 cells in 1.5-ml medium per well for 24 h. Following the incubation period, spent medium was replaced with fresh medium containing the desired concentration of the test compound and incubated for another 18 h. After trypsinization, cells were harvested by centrifuging at 250 × g for 4 min, and the cell pellet was suspended in 100 μl of binding buffer supplemented with 1 μl Sytox and 5 μl annexin V, followed by incubation at 37°C for 15 min. Samples were then diluted by adding 400-μl binding buffer, and flow cytometry was performed using a FACScalibur flow cytometer (Becton, Dickinson, Franklin Lakes, NJ), measuring the fluorescence emissions at 530 nm and 575 nm.
Description for J774A.1 cells: as §1, §2
Description for TIGK cells: as §1, §2

`OO` [Medium/H2O2, hydrogen peroxide, reference compound]: the results for the “Early apoptosis (%)” value in the data set with TIGK cells, with J774A.1 cells and in the data set on HL60 cells were 4.9%, 1.3% and 12.3%, respectively. In addition, the “Late apoptosis/necrosis (%)” value with TIGK cells is on record as 21.9* %; with J774A.1 cells, 34.7%; in the data set on HL60 cells, 31.4%. Moreover, the entries for the “Live cells (%)” value in the data set with TIGK cells, with J774A.1 cells and in the data set on HL60 cells were 56.6%, 41.9% and 52.7%, respectively.

The record behind these values is PMC7577153, “Identification of Small-Molecule Inhibitors Targeting Porphyromonas gingivalis Interspecies Adherence and Determination of Their In Vitro and In Vivo Efficacies” (Antimicrobial Agents and Chemotherapy, 2020).
